We go through four compounds from patent publication US3982931A, “N,N-di-sec.butyl-benzamide herbicides” (priority 1967, dated 1976).

Data set [1] concerns amaranthus retroflexus L. The experiment in a line: herbicidal activity, soil treatment one day after sowing. The data set is classed as in vivo. An excerpt:
(§1) The infesting species and the agrarian species have been indicated in Table 1 by letters, as follows:
A = amaranthus retroflexus L.
(§2) Method of evaluation of the results (of tests):
(§3) 1 slight differences with respect to the control;
(§4) 3 = considerable activity with damages that definitely impair the further development of most of the small plants; an activity degree already useful for practical purposes;
(§5) 4 = maximum of activity with lack of germination or total containment of the small plants in the emerging stage.
(§6) In the case of an intermediate activity between two classes of the scale, both values are recorded with the one which corresponds to the preeminent activity preceding.
(§7) TABLE 2 reports the activity data of other compounds that fall within the class which is the object of this invention.
(§8) TABLE 3 reports data on the herbicidal activity against infesting herbs, while TABLE 4 reports data concerning the activity on useful species of agricultural cultivations. These tables employ the criterion explained previously. […]

In data set [2] the test system is artemisia vulgaris L. The description is as above. Format: in vivo.
Description: as §1
B = artemisia vulgaris L.
as §2, §3, §4, §5, §6, §7, §8

Data set [3] has as its system chenopodium album L. Described as above. The data set is classed as in vivo.
Description: as §1, §2, §3, §4, §5, §6, §7, §8

In data set [4] the test system is echinocloa crus-galli R.S. The description is as above. Format: in vivo.
Description: as §1
D = echinocloa crus-galli R.S.
as §2, §3, §4, §5, §6, §7, §8

The test system of data set [5] is setaria glauca L. Described as above. Format: in vivo.
Description: as §1, §2, §3, §4, §5
In the case of an intermediate activity between two classes of the scale, both values are recorded with the one which corresponds to the preeminent activity preceding. […]
as §8

Data set [6] has as its system vicia sativa L. Described as above. Format: in vivo.
Description: as §1, §2, §3, §4, §5, §6, §7

Data set [7] concerns avena sativa (oats). The experiment in a line: activity on agrarian species, soil treatment one day after sowing. Format: in vivo, Avena sativa L. The conditions noted are these: in vivo.
Description: as §1, §2
(§9) 0 = no activity and no difference with respect to the control;
as §3, §4, §5, §6, §7
(§10) TABLE 3 reports data on the herbicidal activity against infesting herbs, while TABLE 4 reports data concerning the activity on useful species of agricultural cultivations. These tables employ the criterion explained previously. The product was spread on the soil one day after sowing, in quantities of 1, 3, 6, 8, 10, 12 and 14 kg/ha.

For data set [8], the system named is phaseolus vulgaris (bean). Described as above. The data set is classed as in vivo, Phaseolus vulgaris L. The conditions noted are these: in vivo.
Description: as §1
I = phaseolus vulgaris (bean)
as §2, §9, §3, §4, §5, §6, §7, §10

Data set [9] relates to pisum sativum L. (pea). The data set is described as above. Format: in vivo. As to conditions: in vivo.
Description: as §1
L = pisum sativum L. (pea)
as §2, §9, §3, §4, §5, §6, §7, §8

Data set [10] relates to zea mais L. (corn). The data set is described as above. Format: in vivo. The conditions noted are these: in vivo.
Description: as §1, §2, §9, §3, §4, §5, §6, §7, §10

Data set [11] concerns oryza sativa L. (rice). The data set is described as above. Format: in vivo. As to conditions: in vivo.
Description: as §1
P = oryza sativa L. (rice)
as §2, §9, §3, §4, §5, §6, §7, §10

As to `CCC(C)N(C(=O)c1ccc(Cl)cc1Cl)C(C)CC` (centres unmarked) [PA214, 2,4-dichloro-N,N-di-sec.butyl-benzamide], the “activity on A, 0-4 scale” value is reported as 1 in [1] (2 kg/ha), 2-3 in data set [1] (4 kg/ha) and 3-4 in data set [1] (6 kg/ha). For the same compound, the “activity on B, 0-4 scale” value in data set [2] (2 kg/ha) stood at 1; in [2] (4 kg/ha), 2. The results for the “activity on C, 0-4 scale” value in data set [3] (2 kg/ha) and in data set [3] (4 kg/ha) were 1 and 1-2, respectively. Further, the figures for the “activity on D, 0-4 scale” value in data set [4] (4 kg/ha) and in data set [4] (6 kg/ha) were 3-4 and 4, respectively. For the same compound, the “activity on E, 0-4 scale” value in data set [5] (2 kg/ha) was 3; in data set [5] (4 kg/ha) it was 3-4; in data set [5] (6 kg/ha), 4. Further, the “activity on F, 0-4 scale” value in data set [6] (2 kg/ha), in data set [6] (4 kg/ha) and in data set [6] (6 kg/ha) was 0 each time. Also, the “activity on G, 0-4 scale” value in [7] turned out to be 0. Moreover, in data set [8], the “activity on I, 0-4 scale” value is on record as 0. The “activity on L, 0-4 scale” value in data set [9] amounted to 0. The “activity on O, 0-4 scale” value in data set [10] turned out to be 0. In addition, the “activity on P, 0-4 scale” value in data set [11] amounted to 0.

As for `CCC(C)N(C(=O)c1ccc(C)c(C)c1)C(C)CC` (centres unmarked) [PA233, 3,4-dimethyl-N,N-di-sec.butyl-benzamide], the “activity on A, 0-4 scale” value in data set [1] (6 kg/ha) is on record as 2-3. In addition, the “activity on B, 0-4 scale” value in [2] (6 kg/ha) is given as 2. For the same compound, the “activity on C, 0-4 scale” value in [3] (6 kg/ha) stood at 2. The entries for the “activity on D, 0-4 scale” value in data set [4] (2 kg/ha), in data set [4] (4 kg/ha) and in data set [4] (6 kg/ha) were 2-3, 3 and 4, respectively. Also, the “activity on E, 0-4 scale” value in data set [5] (2 kg/ha) is recorded as 3; in [5] (4 kg/ha), 3-4; in data set [5] (6 kg/ha), 4. Also, in [6] (6 kg/ha), the “activity on F, 0-4 scale” value was determined as 0. Besides, the “activity on G, 0-4 scale” value in [7] worked out at 0. Also, the “activity on I, 0-4 scale” value in [8] is given as 0. Besides, the “activity on L, 0-4 scale” value in [9] is reported as 0. Further, the “activity on O, 0-4 scale” value in data set [10] was found to be 0.

As for `CCC(C)N(C(=O)c1cccc(Cl)c1Cl)C(C)CC` (centres unmarked) [PA336, 2,3-dichloro-N,N-di-sec.butyl-benzamide], the “activity on A, 0-4 scale” value in data set [1] (2 kg/ha) was 2-3; in data set [1] (6 kg/ha), 4. The results for the “activity on B, 0-4 scale” value in data set [2] (2 kg/ha), in data set [2] (4 kg/ha) and in data set [2] (6 kg/ha) were 1, 2 and 3, respectively. Besides, the “activity on C, 0-4 scale” value is 2 in data set [3] (2 kg/ha) and 3 in [3] (4 kg/ha). Moreover, the “activity on D, 0-4 scale” value in [4] (2 kg/ha) is 3-4; in data set [4] (4 kg/ha), 4; in [4] (6 kg/ha), 4. Moreover, the “activity on E, 0-4 scale” value in [5] (4 kg/ha) and in [5] (6 kg/ha) was 4 in each case. In addition, the “activity on F, 0-4 scale” value in data set [6] (2 kg/ha), in data set [6] (4 kg/ha) and in data set [6] (6 kg/ha) was 0 in each case. Further, the “activity on G, 0-4 scale” value in [7] is 0. For the same compound, the “activity on I, 0-4 scale” value in data set [8] is recorded as 0. Also, the “activity on L, 0-4 scale” value in data set [9] is on record as 0. The “activity on O, 0-4 scale” value in [10] was found to be 0. Besides, the “activity on P, 0-4 scale” value in data set [11] is listed as 0.

For the compound `CCC(C)N(C(=O)c1ccccc1Cl)C(C)CC` (centres unmarked) [PA215 2,chloro-N,N-disec.butyl-benzamide, 2-chloro-N,N-di-sec.butyl-benzamide], the “activity on A, 0-4 scale” value in data set [1] (6 kg/ha) came to 2. Moreover, the “activity on B, 0-4 scale” value in data set [2] (6 kg/ha) was determined as 1. For the same compound, the “activity on C, 0-4 scale” value in [3] (6 kg/ha) is on record as 0-1. The “activity on D, 0-4 scale” value in [4] (6 kg/ha) is recorded as 2-3. In addition, in data set [5] (6 kg/ha), the “activity on E, 0-4 scale” value worked out at 3. The “activity on F, 0-4 scale” value in data set [6] (6 kg/ha) was 0. Besides, in data set [7], the “activity on G, 0-4 scale” value was determined as 0. Moreover, in [8], the “activity on I, 0-4 scale” value is recorded as 0. Moreover, the “activity on L, 0-4 scale” value in [9] is on record as 0. In addition, the “activity on O, 0-4 scale” value in data set [10] amounted to 0. Also, the “activity on P, 0-4 scale” value in data set [11] is 0.
